Measured values taken from patent US5026836A, “6-sulfenamide, 6-sulfinamide and 6-sulfonamide purines, purine nucleosides, purine nucleotides, pharmaceutical compositions, and processes of making” (priority 1988, dated 1991).
Entries after “also recorded” stand apart in the source; their conditions may differ.

What was measured:
[1] = Solubility (maximum solubility); assay type: physicochemical
Murine Glioma 261 = Murine Glioma 261 tumor weight in C57B1/6 mice; assay type: in vivo, mouse; conditions: qd days 1-9; for Attained tumor wt (Mean ± 1SD): day 10; for T/C (%): active at or below 42%
Experimental: Compound 19 was also tested against Murine Glioma 261. In this test activity is indicated at levels of T/C below 42%. As is shown in Table 19, Compound 19 is active at various doses against this tumor system.

L1210 cells = experiment: Life span of BDF1 mice inoculated ip with 10^6 L1210 leukemia cells; assay type: in vivo, mouse
Experimental: As illustrative examples of use of the compounds of the invention the following examples are given. […] These standard tests utilize protocols developed under the auspices of the Developmental Therapeutics Program, Division of Cancer Treatment, National Cancer Institute, Bethesda, Md., U.S.A. Except as otherwise indicated the tests conform to these protocols and are evaluated utilizing criteria defined by the protocols.
Values below 25% are considered capable of producing effective therapy, those below 10% are considered good and those below 5% are considered very good. This expresses the percent of the cells which survived treatment based upon the original cells in the inoculum. Those tests expressed as increases in life span (% ILS) indicate the increased life span of the drug treated group compared to a control group.
As an indicator of reproducible activity, compounds of the invention and other known cancer chemotherapeutic agents were screened against L1210 lymphoid leukemia in vivo utilizing the mouse as a test species. Normal NCI protocols for this test require 10^5 seed cells of the L1210 cell line.
Cytosine Arabinoside must be given every three hours.
Mice were inoculated intraperitoneally on day 0 with a million cells of murine leukemia L1210. Drug was given qd days 1, 4 and 7. Increased life span is the mean increase in the treated group presented as a percentage of the mean life span of control mice.
Mice were inoculated intraperitoneally on day 0 with a million cells of murine leukemia L1210. Drugs were given qd days 1, 3, 5 and 7. Increased life span is presented as a percentage of the mean life span of control mice.

[2] = test system: L1210/6MP, 6TG, 6TGR cells; experiment: L1210/6MP, 6TG, 6TGR cells surviving treatment; assay type: in vivo, mouse; conditions: for RCP (Residual Cell Population): L1210/6MP,6TG
Experimental: In Example G Compound 19 was tested against both L1210 cells and L1210 cells which were resistant to 6-Mercaptopurine, 6-Thioguanine and 6-Thioguanosine. […] As was noted above, drugs in the 6-Mercaptopurine family are presently among the drugs of choice for treatment of leukemia.

L1210/ARA-C cells = experiment: Cytosine Arabinoside resistant L1210 cells surviving treatment; assay type: in vivo, mouse
L1210/5FU cells = experiment: 5-Fluorouracil resistant L1210 cells surviving treatment; assay type: in vivo, mouse
Experimental: In Examples G through K Compound 19 was tested against L1210 cell lines which had developed resistance to other known cancer chemotherapeutic agents.
In Example J, the results of which are shown in Table 10 below, Compound 19 was tested against 5-Fluorouracil resistant cells.

[3] = test system: reticulum cell sarcoma M5076; experiment: Reticulum cell sarcoma M5076 tumor weight in C57B1/6 mice; assay type: in vivo, mouse; conditions: qd days 1,3,5,7,9,11; for Tumor wt, staging day (mean ± 1SD): before treatment (day 15 post inoculation); for Tumor wt, evaluation day (mean ± 1SD): day 12 of treatment
Experimental: In this example Compound 19 was tested against reticulum cell sarcoma M5076. For this and certain other tests below, test results are shown as δT/δC. Utilizing this protocol the difference in tumor weight before treatment and after treatment of the treated animals compared to the control animals is determined.

[4] = ip 37 mg/kg/inj, bid days 1,3,5,7
[5] = ip 62 mg/kg/inj, bid days 1,4,7
[6] = ip 104 mg/kg/inj, qd days 1,4,7
[7] = ip 173 mg/kg/inj, qd days 1,4,7

Nc1nc([S+](N)[O-])c2ncn([C@@H]3O[C@H](CO)[C@@H](O)[C@H]3O)c2n1 (mixture of isomers) [Compound 19, 2-amino-9-β-D-ribofuranosyl-9H-purine-6-sulfinamide]
Maximum solubility (as dosage) [1]: 288 mg/kg | maximum solubility (as dose) [1]: 288 mg per kg | solubility relative to enantiomer B [1]: exhibits solubility characteristics of enantiomer B | water solubility [1]: water soluble | Attained tumor wt (Mean ± 1SD) (Murine Glioma 261; ip 22 mg/kg/inj): 80 ± 130 mg | Attained tumor wt (Mean ± 1SD) (Murine Glioma 261; ip 37 mg/kg/inj): 119 ± 105 mg | Attained tumor wt (Mean ± 1SD) (Murine Glioma 261; ip 62 mg/kg/inj): 137 ± 124 mg | Attained tumor wt (Mean ± 1SD) (Murine Glioma 261; ip 104 mg/kg/inj): 5 ± 5 mg | T/C (%) (Murine Glioma 261; ip 22 mg/kg/inj): 22.9% | T/C (%) (Murine Glioma 261; ip 37 mg/kg/inj): 34.1% | T/C (%) (Murine Glioma 261; ip 62 mg/kg/inj): 39.3% | T/C (%) (Murine Glioma 261; ip 104 mg/kg/inj): 1.4% | Increased life span (L1210 cells; 37 mg/kg/inj injected, qd days 1,3,5,7): 74% | Increased life span (L1210 cells; 62 mg/kg/inj injected, qd days 1,3,5,7): 123% | Increased life span (L1210 cells; 104 mg/kg/inj injected, qd days 1,3,5,7): 136% | Increased life span (L1210 cells; 173 mg/kg/inj injected, qd days 1,3,5,7): 189% | dose at which significant activity is indicated (L1210 cells; delivered only once on day 1, ip): about 37 mg per kg | T/C (%) (L1210 cells; ip 13 mg/kg, qd day 1): 106% | T/C (%) (L1210 cells; ip 22 mg/kg, qd day 1): 106% | Life span (% T/C) (L1210 cells; ip 22 mg/kg/inj, bid days 1,3,5,7): 193% | Life span (% T/C) (L1210 cells; ip 22 mg/kg/inj, bid days 1,4,7): 161% | Life span (% T/C) (L1210 cells; ip 22 mg/kg/inj, bid days 1-7): 200% | T/C (%) (L1210 cells; ip 37 mg/kg, qd day 1): 128% | % ILS (L1210 cells; [4]): 79% | Life span (% T/C) (L1210 cells; [4]): 236% | Life span (% T/C) (L1210 cells; ip 37 mg/kg/inj, bid days 1,4,7): 216% | Life span (% T/C) (L1210 cells; ip 37 mg/kg/inj, bid days 1-7): 233% | Life span (% T/C) (L1210 cells; ip 37 mg/kg/inj, qd days 1,3,5,7): 174% | Increased life span (L1210 cells; ip 37 mg/kg/inj, qd days 1,4,7): 54% | Life span (% T/C) (L1210 cells; ip 37 mg/kg/inj, qd days 1,4,7): 154% | Life span (% T/C) (L1210 cells; ip 37 mg/kg/inj, qd days 1-7): 213% | T/C (%) (L1210 cells; ip 62 mg/kg, bid day 1): 184% | T/C (%) (L1210 cells; ip 62 mg/kg, qd day 1): 135% | T/C (%) (L1210 cells; ip 62 mg/kg, qid day 1): 194% | T/C (%) (L1210 cells; ip 62 mg/kg, tid day 1): 183% | Life span (% T/C) (L1210 cells; ip 62 mg/kg/inj, bid days 1,3,5,7): 285% | % ILS (L1210 cells; [5]): 88% | Life span (% T/C) (L1210 cells; [5]): 249% | long term survivors (L1210 cells; ip 62 mg/kg/inj, bid days 1-7): 2 | Life span (% T/C) (L1210 cells; ip 62 mg/kg/inj, bid days 1-7, 2 long term survivors not included): 361% | Life span (% T/C) (L1210 cells; ip 62 mg/kg/inj, qd days 1,3,5,7): 223% | Increased life span (L1210 cells; ip 62 mg/kg/inj, qd days 1,4,7): 93% | Life span (% T/C) (L1210 cells; ip 62 mg/kg/inj, qd days 1,4,7): 193% | Life span (% T/C) (L1210 cells; ip 62 mg/kg/inj, qd days 1-7): 239% | T/C (%) (L1210 cells; ip 104 mg/kg, qd day 1): 151% | Life span (% T/C) (L1210 cells; ip 104 mg/kg/inj, bid days 1,4,7, 1 toxic death not included): 311% | Life span (% T/C) (L1210 cells; ip 104 mg/kg/inj, qd days 1,3,5,7): 236% | Increased life span (L1210 cells; [6]): 130% | Life span (% T/C) (L1210 cells; [6]): 230% | long term survivors (L1210 cells; ip 104 mg/kg/inj, qd days 1-7): 1 | Life span (% T/C) (L1210 cells; ip 104 mg/kg/inj, qd days 1-7, 1 long term survivor not included): 307% | T/C (%) (L1210 cells; ip 173 mg/kg, qd day 1): 167% | Life span (% T/C) (L1210 cells; ip 173 mg/kg/inj, qd days 1,3,5,7): 289% | Increased life span (L1210 cells; [7]): 169% | Life span (% T/C) (L1210 cells; [7]): 269% | in vivo antitumor activity (L1210 cells; mouse, in vivo): good in vivo activity | oral activity (words) (L1210 cells): Oral activity is seen | Activity against I.P. L1210 cells, T/C (L1210 cells; oral 37 mg/kg, bid days 1,3,5,7): 148.6% | Activity against I.P. L1210 cells, T/C (L1210 cells; oral 37 mg/kg, qd days 1,4,7): 144.6% | % ILS (L1210 cells; oral 37 mg/kg/inj, bid days 1,3,5,7): 49% | Increased life span (L1210 cells; oral 37 mg/kg/inj, qd days 1,4,7): 45% | Activity against I.P. L1210 cells, T/C (L1210 cells; oral 62 mg/kg, bid days 1,4,7): 140.0% | Activity against I.P. L1210 cells, T/C (L1210 cells; oral 62 mg/kg, qd days 1,4,7): 144.6% | % ILS (L1210 cells; oral 62 mg/kg/inj, bid days 1,4,7): 40% | Increased life span (L1210 cells; oral 62 mg/kg/inj, qd days 1,4,7): 45% | Activity against I.P. L1210 cells, T/C (L1210 cells; oral 104 mg/kg, qd days 1,4,7): 138.5% | Increased life span (L1210 cells; oral 104 mg/kg/inj, qd days 1,4,7): 38% | Activity against I.P. L1210 cells, T/C (L1210 cells; oral 173 mg/kg, qd days 1,4,7): 138.5% | Increased life span (L1210 cells; oral 173 mg/kg/inj, qd days 1,4,7): 38% | oral activity (words) (L1210 cells; listed as 2-amino-9-β-D-ribofuranosyl-9H-purine-6-sulfinamide): active in both an oral and an injectable form; also recorded: orally active | % ILS (L1210 cells; single agent day 1, Compound 19 173 mg/kg, Compound 18 22 mg/kg (Table 12)): 88% | % ILS (L1210 cells; single agent day 1, Compound 19 173 mg/kg, Tiazofurin 22 mg/kg (Table 13)): 81% | RCP (Residual Cell Population) [2, 4]: .28 | RCP (Residual Cell Population) [2, 5]: .09 | L1210/6MP, 6TG, 6TGR cells surviving (% of day zero inoculum) ([2]; ip 62 mg/kg, bid day 1): 15.9% | L1210/6MP, 6TG, 6TGR cells surviving (% of day zero inoculum) ([2]; ip 62 mg/kg, qd day 1): 15.9% | L1210/6MP, 6TG, 6TGR cells surviving (% of day zero inoculum) ([2]; ip 62 mg/kg, tid day 1): 15.9% | L1210/6MP, 6TG, 6TGR cells surviving (% of day zero inoculum) ([2]; ip 104 mg/kg, qd day 1): 54.5% | L1210/6MP, 6TG, 6TGR cells surviving (% of day zero inoculum) ([2]; ip 173 mg/kg, qd day 1): 4.6% | L1210/ARA-C cells surviving (% of day zero inoculum) (L1210/ARA-C cells; [6]): 1.7% | L1210/ARA-C cells surviving (% of day zero inoculum) (L1210/ARA-C cells; ip 173 mg/kg/inj, qd day 1): 0.02% | L1210/ARA-C cells surviving (% of day zero inoculum) (L1210/ARA-C cells; [7]): 0.6% | efficacy against ARA-C resistant line vs parent (L1210/ARA-C cells; mouse, in vivo): greater efficacy against this resistant cell line than it did to the parent non-drug resistant L1210 cells | L1210/5FU cells surviving (% of day zero inoculum) (L1210/5FU cells; ip 62 mg/kg/day, qd days 1-7): 933% | L1210/5FU cells surviving (% of day zero inoculum) (L1210/5FU cells; ip 104 mg/kg/day, qd days 1,3,5,7): 525% | L1210/5FU cells surviving (% of day zero inoculum) (L1210/5FU cells; ip 104 mg/kg/day, qd days 1-7): 3% | L1210/5FU cells surviving (% of day zero inoculum) (L1210/5FU cells; ip 173 mg/kg/day, qd days 1,3,5,7): 13% | activity against 5-Fluorouracil resistant cells (L1210/5FU cells; large dosages): highly active against these resistant cells | Tumor wt, staging day (mean ± 1SD) ([3]; ip 110.8 mg/kg/inj group): 396 ± 116 mg | Tumor wt, staging day (mean ± 1SD) ([3]; ip 138.4 mg/kg/inj group): 355 ± 79 mg | Tumor wt, staging day (mean ± 1SD) ([3]; ip 173.0 mg/kg/inj group): 354 ± 81 mg | Tumor wt, evaluation day (mean ± 1SD) ([3]; ip 110.8 mg/kg/inj): 1121 ± 343 mg | Tumor wt, evaluation day (mean ± 1SD) ([3]; ip 138.4 mg/kg/inj): 855 ± 325 mg | Tumor wt, evaluation day (mean ± 1SD) ([3]; ip 173.0 mg/kg/inj): 409 ± 385 mg | δT/δC ([3]; ip 110.8 mg/kg/inj): 65.8 | δT/δC ([3]; ip 138.4 mg/kg/inj): 45.4 | δT/δC ([3]; ip 173.0 mg/kg/inj): 5.0
